Experiment [1] relates to serum proteins in BLM-induced SSc model. The following applies: Compound A 10 mg/kg. As for the experimental part:
Serum samples were obtained from mice of the BLM-induced SSc model (therapeutic evaluation). Samples from the saline_vehicle (control group without disease), BLM_vehicle (control group with disease), BLM_Compound A (10 mg/kg), and BLM_imatinib (150 mg/kg) groups were used for analysis. Using a Luminex assay (R&D systems), 110 proteins were investigated (supplemental Table s1). Proteins satisfying any of the following criteria were analyzed: i) all samples were adequately measured within the quantitative range; ii) more than half of the samples in one or more groups were quantified, although some samples were out of the quantitative range.
Using serum samples of mice to which 10 mg/kg of Compound A and 150 mg/kg of imatinib were administered, serum protein profiling was carried out in a BLM-induced SSc model (treatment model). Using a Luminex assay, 110 kinds of proteins were investigated.

The subject of experiment [2] is dermal fibroblasts from healthy donors. Kind of experiment: TGF-β-induced human fibroblast activation, healthy donors. The following applies: TGF-β 10 ng/mL, 24 hours. The format is cell-based. From the text: Full-thickness skin biopsies were obtained from clinically involved skin of patients affected by dcSSc, who were recruited from the Systemic sclerosis clinic within the Leeds Institute of Rheumatic and Musculoskeletal Medicine (UK). Control skin samples were from healthy donors. All patients with dcSSc and healthy donors provided written informed consent through the stratification for risk of progression in systemic sclerosis (STRIKE SSC), which had been approved by the North-East Research Ethic committee. Patients with SSc fulfilled the 2013 ACR/EULAR classification criteria for SSc and were classified as having dcSSc according to the LeRoy and Medsger criteria.
Dermal fibroblasts were isolated from the skin biopsy samples of healthy donors and SSc patients. The skin biopsy samples were minced with a scalpel, placed in plastic culture dishes and covered with Dulbecco's Modified Eagle Medium (DMEM) with 4.5 g/L glucose (Thermo Fisher Scientific) supplemented with 20% fetal calf serum (FCS, Thermo Fisher Scientific), 1% penicillin and streptomycin (Merck), and 1 μg/ml of amphotericin (Thermo Fisher Scientific) and cultured at 37° C. in a humidified atmosphere of 5% CO2. Additional growth medium was added after 3 days with no amphotericin. After 7 days, culture medium was replaced with medium containing 10% FCS and subsequently replenished every 2 to 3 days. When a visible outgrowth of cells was obtained, the fibroblasts were passaged. Briefly, cells were incubated with PBS containing 0.1% EDTA for 5 min, and then detached with trypsin-EDTA solution (Merck), and cultured until 70-80% confluent in DMEM (1 g/L glucose) supplemented with 10% FCS and 1% penicillin and streptomycin. After a subsequent passage, primary cells were retrovirally immortalized using human telomerase reverse transcriptase. […]
Total RNA was extracted using the Zymo quick RNA mini prep kit according to manufacturer's instructions (Zymo Research Corporation). […] Quantitative RT-PCR was performed in triplicates using SYBR Green RT-PCR Mastermix Kit (Thermo Fisher Scientific) and the ABI PRISM 7500 Fast Real Time PCR System (Applied Biosystems). […]
FIGS. 5(A)-5(B) show the effect of Compound A on human fibroblast activation. Dermal fibroblasts from a healthy individual or an SSc patient were grown to confluence, and placed under starvation for 24 hours in a medium supplemented with 1% fetal bovine serum (A: mRNA expression of ACTA2 and COL1A1 in dermal fibroblasts of healthy individuals was measured by real-time PCR, and normalized for the GAPDH expression level. B: mRNA expression of ACTA2 and COL1A1 in dermal fibroblasts of SSc patients was measured for by real-time PCR, and normalized for the GAPDH expression level). Each bar represents the mean±SEM of the measured values from three wells. […]

As to `COC[C@H]1CN(C(=O)[C@]2(F)CN(C3CCCC3)C[C@H]2c2ccc(OC)cc2)C[C@@H]1c1ccc(C(F)(F)F)cc1N1CCC(C(=O)O)CC1` [Compound A, 1-{2-[(3S,4R)-1-{[(3R,4R)-1-cyclopentyl-3-fluoro-4-(4-methoxyphenyl)pyrrolidin-3-yl]carbonyl}-4-(methoxymethyl)pyrrolidin-3-yl]-5-(trifluoromethyl)phenyl}piperidine-4-carboxylic acid], in experiment [1], the “BLM-induced elevation of serum GDF-15” value is “significantly suppressed”, the “BLM-induced elevation of serum MMP-2” value was “significantly suppressed”, the “BLM-induced elevation of serum MMP-3” value is reported as “significantly suppressed” and the “BLM-induced elevation of serum P-selectin” value is reported as “significantly suppressed”. Also, in experiment [1], the “BLM-induced elevation of serum S100A9” value is listed as “significantly suppressed”, the “BLM-induced elevation of serum TIMP-1” value is “significantly suppressed”, the “BLM-induced elevation of serum TNFRI” value is “significantly suppressed” and the “BLM-induced elevation of serum TNFRII” value is “significantly suppressed”. Also, in experiment [1], the “BLM-induced elevation of serum adiponectin” value was “significantly suppressed”, the “BLM-induced elevation of serum cystatin C” value was “significantly suppressed” and the “BLM-induced elevation of serum osteoprotegerin” value is reported as “significantly suppressed”. For the same compound, the “TGF-β-induced αSMA (ACTA2) mRNA elevation” value in experiment [2] (concentration-dependent, normalized to GAPDH) is recorded as “inhibited”. In addition, in experiment [2] (normalized to GAPDH), the “TGF-β-induced COL1A1 mRNA expression” value is recorded as “no effect”. In addition, in experiment [2] (concentration of 1000 nmol/L), the “TGF-β-induced increase in αSMA mRNA expression” value is “suppressed”.

These data come from US12533350B2, “Use of melanocortin-1 receptor agonist” (TANABE PHARMA CORPORATION, priority 2022, dated 2026).
